Measured values as given in US12630765B2, “Fertilizer composition for reducing methane gas emission comprising ethephon and uses thereof” (priority 2020, dated 2026).

What was measured:
methanogens in soils = assay: Methane concentration in headspace of soils at fresh water conditions treated with Co-M structural analogues; settings: for Methane concentration in headspace: 20 mg/kg in soils at fresh water conditions, cultivation for 50 days; for methane emission amount reduced compared to the control: 20 mg/kg in soils, 50 days, vs soils without sample treatment
Text: (§1) It is known that coenzyme M (hereinbelow, “Co-M”), which is produced during the intercellular reactions of methanogens, is an inhibitor for specifically inhibiting the methanogenic activity of methanogens. Accordingly, ethephon was selected in the present invention as a structural analogue of Co-M. Specifically, CES (2-chloroethane sulfonate), BES (2-bromoethane sulfonate), and MES (2-mercaptoethane sulfonate) that are known as a structural analogue of Co-M, and ethephon (IUPAC name: 2-chloroethyl phosphonic acid) selected as a structural analogue of Co-M in the present invention were applied, each at the same concentration (20 mg/kg), to soils at fresh water conditions. Then, along with cultivation for 50 days, methane concentration in headspace and activity of the methanogens in soils were measured.
(§2) First, methane concentration in headspace was measured and emission amount of methane gas was analyzed.

[1] = tested on: methanogens in soils (mcrA, methyl coenzyme-M reductase gene); assay: Activity of methanogens in soils (mcrA gene copy number); settings: for Activity of methanogens (mcrA gene copy no./g soil): 20 mg/kg in soils at fresh water conditions, cultivation for 50 days; for mcrA gene copy number reduced compared to the control: 20 mg/kg in soils, 50 days, vs control
Text: as §1, §2

[2] = tested on: methanogens in soils of flooded rice paddies; assay: Methane emission from soils of flooded rice paddies during rice cultivation after fertilizer application; format: in vivo; settings: for Methane emission: applied before rice transplanting
Method: To acetone in which ethephon has been dissolved at various concentrations based on the blending ratio described in the following Table 4, cellulose acetate was added and dissolved therein. After mixing the resultant with gypsum and drying the mixture till to have evaporation of acetone, the mixture was crushed to have particle size of not more than 2 mm. Accordingly, fertilizer capable of reducing methane emission amount by delaying the ethephon degradation in soils was prepared. Since acetone is highly volatile so that it can completely evaporate during the process of mixing and drying ethephon, cellulose acetate, and gypsum, it is used in minimum amount depending on the total amount of mixture. Meanwhile, the ethephon treatment amount of 2 kg/ha, 6 kg/ha, and 10 kg/ha means that ethephon is applied at concentration of 1 mg/kg, 3 mg/kg, and 5 mg/kg (ppm), respectively, in soils.
(§3) Fertilizer composition prepared by mixing ethephon, cellulose acetate, and gypsum at various mixing ratios was applied in an amount of 2 ton/ha to soils of flooded rice paddies before rice transplanting. Then, emission amount of methane during the subsequent process of cultivating rice, effect of inhibiting methane emission, and yield property of rice were analyzed.

rice = assay: Yield property of rice after fertilizer application; format: in vivo, Oryza sativa
Method: as §3

[3] = ethephon 2 kg/ha with gypsum 1940 kg/ha and CA 60 kg/ha
[4] = ethephon 6 kg/ha with gypsum 1940 kg/ha and CA 60 kg/ha
[5] = ethephon 10 kg/ha with gypsum 1940 kg/ha and CA 60 kg/ha

**Q.** Which results are given for `O=S(=O)([O-])CCCl.[Na+]` [CES, 2-chloroethane sulfonate]?
**A.** Methane concentration in headspace (methanogens in soils): 5.1 mg/L; methane emission amount reduced compared to the control (methanogens in soils): about 48%; Activity of methanogens (mcrA gene copy no./g soil) [1]: 1.86 × 10^6 mcrA gene copy no./g soil; mcrA gene copy number reduced compared to the control [1]: about 39%

**Q.** How did the “Methane concentration in headspace” value (methanogens in soils) turn out when `O=P(O)(O)CCCl` [Ethephon, 2-chloroethyl phosphonic acid] was run?
**A.** 4.4 mg/L

**Q.** And the “methane emission amount reduced compared to the control” value (methanogens in soils)?
**A.** ~56%

**Q.** And the “Effect of inhibiting methanogenesis” value [2, 3]?
**A.** 50.5%

**Q.** What about the Methane emission [2, 3] of the same compound?
**A.** 36.9 kg CH4 ha^−1

**Q.** What about the “Effect of inhibiting methanogenesis” value [2, 4] of the same compound?
**A.** 78.6%

**Q.** And the Methane emission [2, 4]?
**A.** 15.9 kg CH4 ha^−1

**Q.** What about the “Effect of inhibiting methanogenesis” value [2, 5] of the same compound?
**A.** 98.1%

**Q.** And the Methane emission [2, 5]?
**A.** 1.4 kg CH4 ha^−1

**Q.** And the “Effect of inhibiting methanogenesis” value ([2]; ethephon 10 kg/ha with gypsum 1940 kg/ha and CA 60 kg/ha, listed as ethephon)?
**A.** about 98.1%

**Q.** What about the “methane gas emission amount from flooded rice paddies” value ([2]; fertilizer containing ethephon vs fertilizer not containing any ethephon) of the same compound?
**A.** significantly lower

**Q.** And the Grain yield (rice; [3])?
**A.** 6331 kg/ha

**Q.** And the Straw yield (rice; [3])?
**A.** 6964 kg/ha

**Q.** And the Yield index (rice; [3])?
**A.** 100

**Q.** And the “change in rice yield in relation to the application amount of ethephon” value (rice; ethephon 2 to 10 kg/ha in fertilizer)?
**A.** no significant change in rice yield

**Q.** And the Grain yield (rice; [4])?
**A.** 6298 kg/ha

**Q.** What about the Straw yield (rice; [4]) of the same compound?
**A.** 6928 kg/ha

**Q.** What about the Yield index (rice; [4]) of the same compound?
**A.** 99.6

**Q.** What about the Grain yield (rice; [5]) of the same compound?
**A.** 6315 kg/ha

**Q.** And the Straw yield (rice; [5])?
**A.** 6946 kg/ha

**Q.** What about the Yield index (rice; [5]) of the same compound?
**A.** 99.9

**Q.** What about the “Activity of methanogens (mcrA gene copy no./g soil)” value [1] of the same compound?
**A.** 1.35 × 10^6 mcrA gene copy no./g soil

**Q.** What about the “mcrA gene copy number reduced compared to the control” value [1] of the same compound?
**A.** ~55%

**Q.** What does the source list for `O=S(=O)([O-])CCBr.[Na+]` [BES, 2-bromoethane sulfonate]?
**A.** Methane concentration in headspace (methanogens in soils): 4.4 mg/L; methane emission amount reduced compared to the control (methanogens in soils): ~56%; Activity of methanogens (mcrA gene copy no./g soil) [1]: 1.65 × 10^6 mcrA gene copy no./g soil; mcrA gene copy number reduced compared to the control [1]: ~45%
